Tests used:
Experiment in all cases: KinomeScan profiling
Format in all cases: binding
ERK3 = ERK3 (Homo sapiens, UniProt Q16659); settings: ERK3, 1 μM; read-out: % control
How it was run: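 Percent-of-control values derive from RLU, calculated as (test − positive)/(negative − positive) × 100, where DMSO defines 100% and a positive control compound defines 0%. Each compound was tested at 1 μM in the 468-kinase panel; sub-35% readings indicate activity.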

ASK1 = molecular target: T1, ASK1 (Homo sapiens, UniProt Q99683); settings: ASK1, 1 μM; read-out: % control
T1 construct: purchased KinomeScan®
T1 sequence (Q99683 1-1374): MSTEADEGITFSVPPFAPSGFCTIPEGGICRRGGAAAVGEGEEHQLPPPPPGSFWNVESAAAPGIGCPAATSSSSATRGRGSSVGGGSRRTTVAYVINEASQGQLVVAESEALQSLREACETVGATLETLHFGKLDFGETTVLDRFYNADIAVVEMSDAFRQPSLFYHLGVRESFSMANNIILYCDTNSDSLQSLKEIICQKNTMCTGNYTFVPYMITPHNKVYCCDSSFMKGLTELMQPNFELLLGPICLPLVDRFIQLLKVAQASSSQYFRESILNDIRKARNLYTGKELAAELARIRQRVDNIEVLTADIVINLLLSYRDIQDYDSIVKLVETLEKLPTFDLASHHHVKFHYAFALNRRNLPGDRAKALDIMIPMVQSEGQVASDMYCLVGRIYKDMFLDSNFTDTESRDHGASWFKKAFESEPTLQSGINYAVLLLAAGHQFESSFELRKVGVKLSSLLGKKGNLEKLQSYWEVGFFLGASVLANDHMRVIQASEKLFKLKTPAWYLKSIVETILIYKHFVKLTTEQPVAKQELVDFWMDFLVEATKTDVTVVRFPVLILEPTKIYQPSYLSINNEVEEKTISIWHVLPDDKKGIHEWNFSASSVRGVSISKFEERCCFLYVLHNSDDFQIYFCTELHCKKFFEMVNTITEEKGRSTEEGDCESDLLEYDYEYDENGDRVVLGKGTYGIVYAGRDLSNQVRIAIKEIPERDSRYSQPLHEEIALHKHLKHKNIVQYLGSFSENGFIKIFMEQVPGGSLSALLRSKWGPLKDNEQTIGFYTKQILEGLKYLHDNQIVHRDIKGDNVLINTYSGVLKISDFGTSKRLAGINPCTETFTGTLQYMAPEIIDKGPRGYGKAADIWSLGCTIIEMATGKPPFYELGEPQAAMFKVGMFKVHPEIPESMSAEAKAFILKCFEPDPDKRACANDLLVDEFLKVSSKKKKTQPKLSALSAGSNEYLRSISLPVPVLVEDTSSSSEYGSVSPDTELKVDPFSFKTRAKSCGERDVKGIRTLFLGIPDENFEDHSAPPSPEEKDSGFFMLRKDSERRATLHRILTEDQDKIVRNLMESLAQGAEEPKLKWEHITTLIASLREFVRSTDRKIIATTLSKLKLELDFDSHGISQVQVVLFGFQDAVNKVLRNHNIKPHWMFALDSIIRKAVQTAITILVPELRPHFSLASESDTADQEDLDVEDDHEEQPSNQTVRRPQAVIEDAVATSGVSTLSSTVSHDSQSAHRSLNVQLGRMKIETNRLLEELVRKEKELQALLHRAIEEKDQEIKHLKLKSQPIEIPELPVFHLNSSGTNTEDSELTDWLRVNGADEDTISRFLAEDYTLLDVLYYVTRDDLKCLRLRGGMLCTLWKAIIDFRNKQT
How it was run: (§1)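 First, compounds in DMSO are added at 1 μM to each of 468 kinase assays. Next, RLU signals are normalised between positive control (0%) and DMSO (100%). Finally, kinases under 35% are flagged active.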

ERK4 = ERK4 (Homo sapiens, UniProt P31152); settings: ERK4, 1 μM; read-out: % control
Chain of ERK4 (P31152 whole entry): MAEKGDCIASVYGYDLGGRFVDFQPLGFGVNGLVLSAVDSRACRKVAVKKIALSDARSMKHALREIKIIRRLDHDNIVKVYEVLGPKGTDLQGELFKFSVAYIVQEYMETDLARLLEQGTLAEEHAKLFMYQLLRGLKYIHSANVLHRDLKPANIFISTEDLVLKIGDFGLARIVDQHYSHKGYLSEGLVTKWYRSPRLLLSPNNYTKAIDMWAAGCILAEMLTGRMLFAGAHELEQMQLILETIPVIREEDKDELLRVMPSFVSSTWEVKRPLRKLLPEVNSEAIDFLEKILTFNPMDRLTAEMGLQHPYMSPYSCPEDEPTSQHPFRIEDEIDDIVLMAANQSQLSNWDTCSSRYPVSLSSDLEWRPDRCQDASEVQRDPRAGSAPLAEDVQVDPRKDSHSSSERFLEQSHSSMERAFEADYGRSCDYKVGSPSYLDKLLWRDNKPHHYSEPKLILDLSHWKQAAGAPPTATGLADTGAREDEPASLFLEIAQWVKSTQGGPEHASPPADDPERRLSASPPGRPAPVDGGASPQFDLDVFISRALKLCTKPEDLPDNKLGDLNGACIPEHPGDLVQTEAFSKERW
How it was run: as §1

PRKD3 = molecular target: T2, PRKD3 (Homo sapiens, UniProt O94806); settings: PRKD3, 1 μM; read-out: % control
T2 sequence (O94806 1-890): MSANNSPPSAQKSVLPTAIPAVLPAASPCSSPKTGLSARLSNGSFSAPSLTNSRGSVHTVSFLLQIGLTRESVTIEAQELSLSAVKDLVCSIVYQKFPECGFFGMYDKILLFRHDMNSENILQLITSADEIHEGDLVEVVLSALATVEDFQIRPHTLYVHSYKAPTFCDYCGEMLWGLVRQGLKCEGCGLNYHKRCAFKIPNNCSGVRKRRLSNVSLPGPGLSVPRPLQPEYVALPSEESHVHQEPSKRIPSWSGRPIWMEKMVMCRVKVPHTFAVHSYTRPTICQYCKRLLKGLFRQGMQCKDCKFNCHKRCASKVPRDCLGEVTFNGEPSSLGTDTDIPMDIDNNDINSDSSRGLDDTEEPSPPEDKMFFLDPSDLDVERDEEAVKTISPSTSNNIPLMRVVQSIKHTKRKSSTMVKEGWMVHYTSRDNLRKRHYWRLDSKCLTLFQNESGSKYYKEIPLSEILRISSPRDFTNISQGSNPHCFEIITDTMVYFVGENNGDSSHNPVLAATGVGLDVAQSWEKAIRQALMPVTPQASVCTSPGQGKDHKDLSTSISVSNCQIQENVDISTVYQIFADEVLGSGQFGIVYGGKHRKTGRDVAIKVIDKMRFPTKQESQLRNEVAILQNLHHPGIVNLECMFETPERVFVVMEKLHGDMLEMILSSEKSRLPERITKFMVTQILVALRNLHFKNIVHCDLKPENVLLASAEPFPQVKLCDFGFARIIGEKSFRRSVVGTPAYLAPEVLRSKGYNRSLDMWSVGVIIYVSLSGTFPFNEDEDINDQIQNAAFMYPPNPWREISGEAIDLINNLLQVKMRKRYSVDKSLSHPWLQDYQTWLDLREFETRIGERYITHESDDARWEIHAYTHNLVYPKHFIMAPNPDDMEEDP
How it was run: as §1

GSK3A = GSK3A (Homo sapiens, UniProt P49840); settings: read-out: % control
Chain of GSK3A (P49840 whole entry): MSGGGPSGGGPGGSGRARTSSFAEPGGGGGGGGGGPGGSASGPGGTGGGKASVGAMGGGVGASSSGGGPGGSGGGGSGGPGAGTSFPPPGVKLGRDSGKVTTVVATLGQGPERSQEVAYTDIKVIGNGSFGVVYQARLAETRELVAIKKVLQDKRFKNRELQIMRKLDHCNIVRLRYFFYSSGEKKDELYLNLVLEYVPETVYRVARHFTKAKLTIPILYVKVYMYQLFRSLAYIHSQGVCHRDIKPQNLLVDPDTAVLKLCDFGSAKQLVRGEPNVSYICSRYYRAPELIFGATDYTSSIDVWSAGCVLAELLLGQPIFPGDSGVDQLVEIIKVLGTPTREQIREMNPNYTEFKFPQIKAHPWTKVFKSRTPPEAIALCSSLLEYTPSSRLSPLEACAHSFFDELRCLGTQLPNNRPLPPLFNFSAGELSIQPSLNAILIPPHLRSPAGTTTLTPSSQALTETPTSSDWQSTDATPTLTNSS
How it was run: as §1

NDR2 = NDR2 (Homo sapiens, UniProt Q9Y2H1); settings: NDR2, 1 μM; read-out: % control
Chain of NDR2 (Q9Y2H1 whole entry): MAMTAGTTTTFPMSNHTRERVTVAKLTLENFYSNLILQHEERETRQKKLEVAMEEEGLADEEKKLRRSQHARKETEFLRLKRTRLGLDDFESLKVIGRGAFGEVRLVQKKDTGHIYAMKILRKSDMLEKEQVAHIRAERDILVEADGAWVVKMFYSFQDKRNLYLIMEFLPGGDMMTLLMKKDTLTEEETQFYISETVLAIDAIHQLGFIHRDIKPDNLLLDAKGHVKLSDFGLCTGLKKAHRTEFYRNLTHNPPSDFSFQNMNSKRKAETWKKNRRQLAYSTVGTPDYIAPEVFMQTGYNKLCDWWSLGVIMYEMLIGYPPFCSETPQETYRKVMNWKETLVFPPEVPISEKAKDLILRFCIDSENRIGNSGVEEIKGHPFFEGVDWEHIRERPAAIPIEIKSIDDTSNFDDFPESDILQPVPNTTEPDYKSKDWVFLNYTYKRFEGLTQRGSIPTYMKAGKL
How it was run: as §1

Chain of ERK3 (Q16659 whole entry): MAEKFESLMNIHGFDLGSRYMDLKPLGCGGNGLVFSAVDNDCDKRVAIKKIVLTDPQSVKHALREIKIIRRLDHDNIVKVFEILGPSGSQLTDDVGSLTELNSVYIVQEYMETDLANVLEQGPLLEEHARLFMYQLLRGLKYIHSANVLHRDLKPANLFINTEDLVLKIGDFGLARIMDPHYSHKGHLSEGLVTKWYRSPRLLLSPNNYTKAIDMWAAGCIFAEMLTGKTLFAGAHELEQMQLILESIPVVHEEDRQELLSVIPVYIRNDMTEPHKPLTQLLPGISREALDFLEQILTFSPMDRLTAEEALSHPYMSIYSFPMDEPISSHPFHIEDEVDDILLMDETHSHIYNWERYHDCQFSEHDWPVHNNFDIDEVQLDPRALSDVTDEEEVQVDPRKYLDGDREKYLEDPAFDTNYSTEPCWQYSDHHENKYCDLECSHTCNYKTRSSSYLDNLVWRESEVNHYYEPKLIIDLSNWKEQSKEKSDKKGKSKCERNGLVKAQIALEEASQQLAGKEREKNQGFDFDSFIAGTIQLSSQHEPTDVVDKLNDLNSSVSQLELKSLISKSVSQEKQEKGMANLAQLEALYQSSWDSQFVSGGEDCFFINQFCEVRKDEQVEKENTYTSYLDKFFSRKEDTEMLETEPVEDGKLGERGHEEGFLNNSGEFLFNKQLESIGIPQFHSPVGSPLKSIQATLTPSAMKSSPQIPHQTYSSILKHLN

SMILES	remaining binding at 1 µM (ERK3)	remaining binding at 1 µM (ASK1)	remaining binding at 1 µM (ERK4)	remaining binding at 1 µM (PRKD3)	remaining binding at 1 µM (GSK3A)	remaining binding at 1 µM (NDR2)
CNc1c(-c2cnn([C@H]3CCN(C(C)=O)C[C@@H]3F)c2)cnc2[nH]cc(Cl)c12 [Compound 77, 1-((3S,4S)-4-(4-(3-chloro-4-(methylamino)-1H-pyrrolo[2,3-b]pyridin-5-yl)-1H-pyrazol-1-yl)-3-fluoropiperidin-1-yl)ethan-1-one]	87%	4.3%	90%	56%	98%	21%
O=C(c1ccc(-c2cnc3[nH]cc(Cl)c3c2NC2CCCC2)cc1)N1CCC(N2CCOCC2)CC1 [Compound 101, (4-(3-chloro-4-(cyclopentylamino)-1H-pyrrolo[2,3-b]pyridin-5-yl)phenyl)(4-morpholinopiperidin-1-yl)methanone]	100%	94%	93%	35%	42%	63%
CNc1c(-c2ccc(C(=O)N3CCC(N4CCOCC4)CC3)cc2)cnc2[nH]cc(Cl)c12 [Compound 96, (4-(3-chloro-4-(methylamino)-1H-pyrrolo[2,3-b]pyridin-5-yl)phenyl)(4-morpholinopiperidin-1-yl)methanone]	85%	5.9%	94%	13%	65%	19%

Reference: patent publication US12275731B2, “Azaindole inhibitors of wild-type and mutant forms of LRRK2” (DANA-FARBER CANCER INSTITUTE, INC., priority 2018, dated 2025)
